{"source": "patent US20100022778A1", "about": "“PROCESS FOR PRODUCTION OF SULFINYLBENZIMIDAZOLE COMPOUNDS OR SALTS THEREOF” (priority 2006, published 2010)", "tested_on": "gastric acid secretion in dogs having chronic gastric fistula", "test": "Gastric acid secretion inhibiting effect in dogs having chronic gastric fistula (histamine-stimulated)", "type": "in vivo", "conditions": "dog, histamine i.v.; for Gastric Acid Secretion Inhibiting Action (%): first day, 1 h 40 min to 2 h after administration; for Gastric Acid Secretion Inhibiting Persistence (%): second day (24 hours after administration)", "experimental": "Using large dogs (body weight approximately 14 to 19 kg) having a chronic gastric fistula, the gastric acid secretion inhibiting action and gastric acid secretion inhibiting action persistence of test compounds of the Examples was investigated. The experiment was carried out over 2 days. On the first day, gastric juice was collected every 20 minutes under conditions of intravenously administering histamine (50 or 75 μg/kg/h) continuously for 3 hours. 1 Hour after commencing the histamine administration, the test compound suspended or dissolved in a 0.5% methylcellulose solution was administered at a volume of 0.1 ml/kg via an indwelling catheter in the duodenum. The gastric acid secretion inhibiting action of the test compound was then investigated over the subsequent 2 hours. On the second day (24 hours after the administration of the test compound), gastric juice was collected every 20 minutes under conditions of intravenously administering histamine continuously for 2 hours, and the gastric acid secretion inhibiting action persistence was investigated. After measuring the amount of gastric juice, a 0.5 ml sample of the gastric juice was taken, and neutralization titration was carried out to a pH of 7.0 with a 0.04 mol/l sodium hydroxide solution so as to measure the acid concentration. The acid concentration was multiplied by the amount of gastric juice so as to determine the gastric acid output. The gastric acid secretion inhibiting action was evaluated as the gastric acid secretion suppression rate (%) on the first day. The gastric acid secretion inhibiting action (%) was calculated using the following formula. In the case of 2 or more dogs, the mean over all of the dogs was calculated and is shown.\nGastric acid secretion inhibiting action (%)=(A−B)/A×100\n[A] Gastric acid output over 20 minutes from 40 minutes to 1 hour after commencement of histamine administration [B] Gastric acid output over 20 minutes from 1 hour 40 minutes to 2 hours after administration of test compound\nThe gastric acid secretion inhibiting action persistence was evaluated as the gastric acid secretion suppression rate (%) on the second day. The gastric acid secretion inhibiting action persistence (%) was calculated using the following formula.\nGastric acid secretion inhibiting action persistence (%)=(C−D)/C×100\n[C] Total gastric acid output from commencement of histamine administration on first day to 1 hour thereafter [D] Total gastric acid output from commencement of histamine administration on second day to 1 hour thereafter", "key": {"[1]": {"conditions": "0.4 mg/kg i.d., mean of 10 dogs"}}}
{"smiles": "Cc1cnc(C[S+]([O-])c2nc3ccccc3[n-]2)c(C)c1OCC1COC(C)(C)OC1.[Na+]", "note": "(stereo not drawn) [Compound X, Sodium Salt of Optical Isomer Having Short Retention Time of 2-[[[4-(2,2-dimethyl-1,3-dioxan-5-yl)methoxy-3,5-dimethylpyridin-2-yl]methyl]sulfinyl]-1H-benzimidazole]", "values": [{"measurement": "Gastric Acid Secretion Inhibiting Action (%)", "setting": "0.1 mg/kg i.d., mean of 4 dogs", "result": 8, "unit": "%"}, {"measurement": "Gastric Acid Secretion Inhibiting Persistence (%)", "setting": "0.1 mg/kg i.d., mean of 4 dogs", "result": 6, "unit": "%"}, {"measurement": "Gastric Acid Secretion Inhibiting Action (%)", "setting": "0.2 mg/kg i.d., mean of 4 dogs", "result": 65, "unit": "%"}, {"measurement": "Gastric Acid Secretion Inhibiting Persistence (%)", "setting": "0.2 mg/kg i.d., mean of 4 dogs", "result": 46, "unit": "%"}, {"measurement": "Gastric Acid Secretion Inhibiting Action (%)", "setting": "[1]", "result": 97, "unit": "%"}, {"measurement": "Gastric Acid Secretion Inhibiting Persistence (%)", "setting": "[1]", "result": 77, "unit": "%"}, {"measurement": "Gastric Acid Secretion Inhibiting Action (%)", "setting": "0.8 mg/kg i.d., mean of 8 dogs", "result": 100, "unit": "%"}, {"measurement": "Gastric Acid Secretion Inhibiting Persistence (%)", "setting": "0.8 mg/kg i.d., mean of 8 dogs", "result": 89, "unit": "%"}]}
